# ChEMBL document CHEMBL1201862, “PubChem BioAssay data set” (2004)
#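 Briefly, cells in 96-well plates were exposed to five compound concentrations for 48 h, and endpoints were estimated by linear interpolation. GI50 = concentration required for 50% inhibition of growth.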 The source made the active and inactive calls. Rule as the data show it: active = GI50 up to about 1.1 µM and inactive = higher.
# Tests used:
# Assay in all cases: growth of human tumour cells (NCI), 48 h
# [1] = system: HCT-116
# [2] = system: MDA-MB-435
# [3] = system: SK-MEL-2
# [4] = system: HOP-62
# [5] = system: HCT-15
# [6] = system: LOX IMVI
# [7] = system: OVCAR-3
# [8] = system: A549
# [9] = system: OVCAR-5
# [10] = system: NCI-H226
# [11] = system: SR
# [12] = system: SF-268
# [13] = system: SF-539
# [14] = system: IGROV-1
# [15] = system: OVCAR-4
# [16] = system: DU-145
# [17] = system: MOLT-4
# [18] = system: HOP-92
# [19] = system: ACHN
# [20] = system: PC-3
Structure (SMILES),GI50 [1],GI50 [2],GI50 [3],GI50 [4],GI50 [5] [µM],GI50 [6],GI50 [7],GI50 [8],GI50 [9],GI50 [10],GI50 [11],GI50 [12],GI50 [13],GI50 [14],GI50 [15],GI50 [16],GI50 [17],GI50 [18],GI50 [19],GI50 [20]
Cc1cc(Cl)ccc1OCC(=O)Nc1nc(N)nc(N)n1,> 100 µM (inactive),> 100 µM (inactive),> 100 µM (inactive),> 100 µM (inactive),> 100,> 100 µM (inactive),> 100 µM (inactive),> 100 µM (inactive),> 100 µM (inactive),> 100 µM (inactive),> 100 µM (inactive),> 100 µM (inactive),> 100 µM (inactive),> 100 µM (inactive),> 100 µM (inactive),> 100 µM (inactive),> 100 µM (inactive),> 100 µM (inactive),> 100 µM (inactive),> 100 µM (inactive)
COc1cccc2c1C(=O)c1ccc3cc(CO)cc(O)c3c1C2=O,0.252 µM (active),0.201 µM (active),0.798 µM (active),2.09 µM (inactive),0.321,1.8 µM (inactive),0.169 µM (active),0.624 µM (active),2.09 µM (inactive),0.908 µM (active),0.267 µM (active),0.815 µM (active),0.329 µM (active),1.38 µM (inactive),0.652 µM (active),0.733 µM (active),0.405 µM (active),0.573 µM (active),0.509 µM (active),0.215 µM (active)
O=P(O)(O)CN1CCNCCN(CP(=O)(O)O)CC1,8.93 µM (inactive),36.5 µM (inactive),46 µM (inactive),> 100 µM (inactive),8.89,25.9 µM (inactive),> 62.7 µM (inactive),15.2 µM (inactive),> 42.3 µM (inactive),> 38.5 µM (inactive),9.44 µM (inactive),75.2 µM (inactive),> 22.1 µM (inactive),33.3 µM (inactive),> 100 µM (inactive),> 100 µM (inactive),12.5 µM (inactive),> 34 µM (inactive),> 100 µM (inactive),52.4 µM (inactive)
CCCCCCCCCCCCCCCCCC(=O)Nc1ccn(C2CCC(COP(=O)(O)O)O2)c(=O)n1 (stereo not given),> 100 µM (inactive),> 100 µM (inactive),> 100 µM (inactive),> 100 µM (inactive),> 100,> 100 µM (inactive),> 100 µM (inactive),> 100 µM (inactive),> 100 µM (inactive),> 100 µM (inactive),> 100 µM (inactive),> 100 µM (inactive),> 100 µM (inactive),> 100 µM (inactive),> 100 µM (inactive),> 100 µM (inactive),> 100 µM (inactive),> 100 µM (inactive),> 100 µM (inactive),> 100 µM (inactive)
Cc1ccc(S(=O)(=O)[C@@H](Cl)[C@H]2N=C(Cl)NN=C2c2ccccc2)cc1,25.1 µM (inactive),22.1 µM (inactive),14.8 µM (inactive),20 µM (inactive),22.2,19.1 µM (inactive),14.7 µM (inactive),34.1 µM (inactive),85.9 µM (inactive),26.8 µM (inactive),27.2 µM (inactive),18.3 µM (inactive),30.1 µM (inactive),21.8 µM (inactive),13.9 µM (inactive),23.2 µM (inactive),20.6 µM (inactive),23 µM (inactive),33.7 µM (inactive),16.7 µM (inactive)
c1cc(-c2cnc(-c3ccc4c(c3)CCCO4)o2)ccn1,16.7 µM (inactive),15.1 µM (inactive),11.9 µM (inactive),16.5 µM (inactive),16.2,13.6 µM (inactive),16.4 µM (inactive),16.2 µM (inactive),13.6 µM (inactive),15.3 µM (inactive),0.524 µM (active),15.6 µM (inactive),9.1 µM (inactive),17.9 µM (inactive),14.1 µM (inactive),11.3 µM (inactive),5.62 µM (inactive),22.9 µM (inactive),14 µM (inactive),11.8 µM (inactive)
C=CCn1c(-c2ccc(-c3cs/c(=N\N=O)n3CC=C)cc2)cs/c1=N\N=O,79.1 µM (inactive),> 100 µM (inactive),> 100 µM (inactive),64.3 µM (inactive),> 100,> 100 µM (inactive),> 100 µM (inactive),> 100 µM (inactive),> 100 µM (inactive),> 100 µM (inactive),> 100 µM (inactive),> 100 µM (inactive),94.4 µM (inactive),> 100 µM (inactive),22.2 µM (inactive),> 100 µM (inactive),> 100 µM (inactive),> 100 µM (inactive),> 100 µM (inactive),> 100 µM (inactive)
COC(=O)C1=C(C(=O)OC)N(c2ccc(OC)cc2[N+](=O)[O-])C(c2ccc(C)cc2)=CC1c1ccc(OC)cc1OC (stereo not given),10.7 µM (inactive),5.13 µM (inactive),29.6 µM (inactive),26.4 µM (inactive),4.65,2.36 µM (inactive),23.6 µM (inactive),7.89 µM (inactive),34.5 µM (inactive),18.3 µM (inactive),2.28 µM (inactive),32.9 µM (inactive),6.61 µM (inactive),13.3 µM (inactive),44 µM (inactive),25.2 µM (inactive),8.79 µM (inactive),47.2 µM (inactive),18.7 µM (inactive),47.6 µM (inactive)
CC(=O)Nc1ccc2c3c(cc(O)c2c1)N(C(=O)CCCCCCC(=O)N1CC(CCl)c2c1cc(O)c1cc(NC(C)=O)ccc21)CC3CCl (stereo not given),< 0.01 µM (active),0.0127 µM (active),< 0.01 µM (active),< 0.0116 µM (active),0.231,< 0.01 µM (active),< 0.01 µM (active),0.0113 µM (active),0.0325 µM (active),< 0.01 µM (active),< 0.01 µM (active),< 0.01 µM (active),< 0.01 µM (active),0.015 µM (active),0.0419 µM (active),< 0.01 µM (active),< 0.01 µM (active),< 0.0117 µM (active),< 0.01 µM (active),< 0.0119 µM (active)
C=C1C(=O)OC2C(C)C3C=CC(=O)[C@@]3(C)C(OC(=O)/C(C)=C/C)C1[C@@H]2OC(C)=O (stereo not given in full),0.319 µM (active),0.267 µM (active),0.278 µM (active),1.25 µM (inactive),0.247,0.243 µM (active),0.26 µM (active),1.67 µM (inactive),1.88 µM (inactive),1.73 µM (inactive),0.168 µM (active),0.673 µM (active),0.333 µM (active),0.78 µM (active),0.822 µM (active),1.36 µM (inactive),0.334 µM (active),0.551 µM (active),0.589 µM (active),0.522 µM (active)
